pEC50, pIC50, pKd: −log10 of the molar value. The source made the active and inactive calls. The calls are words filed in the database; no cut-off is given here.
Assays:
NCI-H1975 [1] = test: Growth inhibition of human NCI-H1975 cells at 50 uM incubated for 72 hrs by MTT assay; type: functional; settings: for inhibition of growth at 50 µM: NCI-H1975, 72 h, read-out: GI
[2] = molecular target: T1, L-lactate dehydrogenase A chain (Homo sapiens, UniProt P00338); test: Inhibition of His-tagged human LDHA at 10 uM incubated for 10 mins using NADH and pyruvate by microplate reader based assay
A549 = test: Growth inhibition of human A549 cells at 50 uM incubated for 72 hrs by MTT assay; type: functional; settings: for inhibition of growth at 50 µM: A549, 72 h, read-out: GI
[3] = molecular target: T1, L-lactate dehydrogenase A chain; test: Inhibition of His-tagged human LDHA incubated for 10 mins using NADH and pyruvate by microplate reader based assay
[4] = molecular target: T1, L-lactate dehydrogenase A chain; test: Inhibition of LDHA in human NCI-H1975 cells assessed as reduction in lactate production incubated for 4 hrs; type: cell-based
[5] = molecular target: T1, L-lactate dehydrogenase A chain; test: Binding affinity to His-tagged human LDHA in presence of NAD+ by isothermal titration calorimetry
NCI-H1975 [6] = test: Growth inhibition of human NCI-H1975 cells under hypoxic conditions by IncuCyte zoom live cell analysis; type: functional, cell-based
NCI-H1975 [7] = test: Growth inhibition of human NCI-H1975 cells at 10 uM under normal oxygenated conditions by IncuCyte zoom live cell analysis; type: cell-based; settings: nci-h1975, 10 µM
NCI-H1975 [8] = test: Growth inhibition of human NCI-H1975 cells under normal oxygenated conditions by IncuCyte zoom live cell analysis; type: cell-based
NCI-H1975 [9] = test: Growth inhibition of human NCI-H1975 cells at 10 uM under hypoxic conditions by IncuCyte zoom live cell analysis; type: functional, cell-based
[10] = molecular target: T1, L-lactate dehydrogenase A chain; test: Binding affinity to His-tagged human LDHA in absence of NAD+ by isothermal titration calorimetry

Work on `COc1ccccc1OCC(=O)NC1CCC(Oc2nc(C)cc(C)n2)CC1` (stereo not drawn) yielded an inhibition of growth at 50 µM (NCI-H1975 [1]) of 45.2%, an inhibition [2] of 78.5% and an inhibition of growth at 50 µM (A549) of 23.3%.
In the case of `O=C(c1cc2n(n1)CCCO2)N1CCC(N2CCN(c3ncccc3C(F)(F)F)CC2)CC1`, the “growth inhibition (GI)” value (NCI-H1975 [1]) was “inactive”, the inhibition [2] was “inactive” and the “growth inhibition (GI)” value (A549) was “inactive”.
`COc1cccc(OCC(=O)Nc2ccc3c(c2)NC(=O)C(C)(C)CO3)c1` was tested, and the inhibition of growth at 50 µM (NCI-H1975 [1]) was 15.3%, the inhibition [2] was “inactive” and the inhibition of growth at 50 µM (A549) was 26.9%.
With `O=C(c1cc2n(n1)CCCC2)N1CCN(C(=O)C2(c3cccs3)CCCC2)CC1` the “growth inhibition (GI)” value (NCI-H1975 [1]) was “inactive”, the inhibition [2] was “inactive” and the “growth inhibition (GI)” value (A549) was “inactive”.
`O=C1N[C@](c2ccc(N3CCOCC3)cc2)(c2ccsc2)CC(O)=C1Sc1ccccc1Cl` showed an inhibition of growth at 50 µM (NCI-H1975 [1]) of 100%, an inhibition [2] of 100% and an inhibition of growth at 50 µM (A549) of 100%.
`O=C(NCC(=O)N1CCC(Cc2nc(C3CC3)no2)CC1)c1ccccc1` was tested, and the pEC50 [3] was 6.15, the inhibition of growth at 50 µM (NCI-H1975 [1]) was 58.7% and the inhibition [4] was “Dose-dependent effect”. The inhibition [2] was 95.2%, the pKd [5] was 5.99 and the pIC50 (NCI-H1975 [6]) was 5.24. The “growth inhibition (GI)” value (NCI-H1975 [7]) was “Non-Toxic”, the pIC50 (NCI-H1975 [8]) was 4.44 and the inhibition of growth at 50 µM (A549) was 69.3%. The “growth inhibition (GI)” value (NCI-H1975 [9]) was “Active” and the pKd [10] was 4.36.
For `COc1cc(=O)n2c(c1CCCc1cc(OC)c(OC)c(OC)c1)CCC2`, the “growth inhibition (GI)” value (NCI-H1975 [1]) was “inactive”, the inhibition [2] was 25.7% and the “growth inhibition (GI)” value (A549) was “inactive”.
For `O=C(CNC1CCN(c2ncc(F)cn2)CC1)COCc1ccccc1`, the inhibition of growth at 50 µM (NCI-H1975 [1]) was 39.8%, the inhibition [2] was 45.8% and the inhibition of growth at 50 µM (A549) was 55.3%.
With `Cc1ncn(CC(=O)N2CCC(Oc3cncc(N(C)C)n3)C2)c(=O)c1C` (stereo not drawn) the “growth inhibition (GI)” value (NCI-H1975 [1]) was “inactive”, the inhibition [2] was 66.3% and the “growth inhibition (GI)” value (A549) was “inactive”.
For `N#Cc1cccnc1N1CCC(CNC(=O)C(=O)Nc2cccc(C(F)(F)F)c2)CC1`, the inhibition of growth at 50 µM (NCI-H1975 [1]) was 25.9%, the inhibition [2] was “inactive” and the inhibition of growth at 50 µM (A549) was 33.5%.

Reference: ChEMBL document CHEMBL4433265, “Discovery of human lactate dehydrogenase 5 inhibitors (hLDH5) with anti-lung cancer activity through an in silico method and biological validation” (Bioorg Med Chem Lett, 2019)
